Experimental data from patent US20210363110A1, “4-METHYLDIHYDROPYRIMIDINONE COMPOUNDS AND PHARMACEUTICAL USE THEREOF” (Japan Tobacco Inc., priority 2018, published 2021).

Columns and labels:
[1] = Metabolic stability in hepatocytes, rat; format: in vitro ADME; conditions: residual ratio of unreacted substance, 1×10^6 cells/mL
Protocol: (§1) A test solution was prepared by diluting 10 mM DMSO solution of a test substance with acetonitrile by 20 times.
(§2) Human and animal cryopreserved hepatocyte (BIOIVT; Human (IVT-X008000), Rat (IVT-M00005), Monkey (IVT-M00305), Dog (IVT-M00205)) were adjusted with William's Medium E (SIGMA; W1878) to 1×10^6 cells/mL of a cell suspension, which was then added to a 96-well plate. Then, 1% of the solution of a test substance prepared was added to the reaction system, and the metabolic reaction was initiated. At a designated time, 0.1% formic acid-acetonitrile was added thereto, and the reaction was terminated.
(§3) The sample after termination of the reaction was separated by centrifugation (1400 g, 20 min.), and then the supernatant was measured by LC/MS (UPLC-SQD (waters)) to calculate a residual ratio of unreacted substances.

[2] = Metabolic stability in liver microsomes, mouse; format: in vitro ADME; conditions: residual ratio of unreacted substance, 0.2 mg/mL microsomes, NADPH generating system
Protocol: A test solution was prepared by diluting 10 mM DMSO solution of a test substance with acetonitrile by 100 times.
Human and animal liver microsomes (SEKISUI XENOTECH; Human (H2610), Rat (R1000), Mouse (M1000), Monkey (P2000), Dog (D1000)) were adjusted with potassium phosphate buffer (pH 7.4) to 0.2 mg/mL in the reaction system. Then, 1% of the solution of a test substance prepared was added to the reaction system. Thereto was added an NADPH generating system (prepared according to the method of Non Patent Literature 28), and the metabolic reaction was initiated. At a designated time, 0.1% formic acid-acetonitrile/water (3:1) was added thereto, and the reaction was terminated.
as §3

[3] = Rat pharmacokinetic (PK) assay and measurement of plasma concentrations; format: in vivo; conditions: male rat, 0.3 mg/kg, DMSO solution, T1/2=0.693/Kel
Protocol: A DMSO solution (0.1 mL/kg) of test substance (0.3 mg/kg) was administered to a male rat (7-week old), and blood was collected at designated times (5, 10, 15, 30 min., 1, 2, 4, 8, 25 hr). Samples after the blood collection were separated by centrifugation (11000 g, 5 min.) to obtain plasmas.
A double volume of a mixed solution of acetonitrile/water (9:1) was added to a plasma sample obtained in (1) in order that proteins were extracted from the mixture. The sample after extraction was separated by centrifugation (11000 g, 5 min.), and the supernatant was measured by LC/MSMS (Nexera (Shimadzu)-QTrap5500 (AB SCIEX)). A calibration curve was measured simultaneously, and plasma concentrations were calculated.
The elimination rate constant (Kel) was calculated from two points of the elimination phase in the plasma concentration profile, and the half-life (T1/2) was calculated from the elimination rate constant.
Kel=−(ln Conc1−ln Conc2)/(t1−t2)

[4] = Metabolic stability in hepatocytes, dog; format: in vitro ADME; conditions: residual ratio of unreacted substance, 1×10^6 cells/mL
Protocol: as §1, §2, §3

[5] = tested on: IL-17 production in plasmas; experiment: IL-17 production in plasmas of antigen-sensitized mice; format: in vivo, C57BL/6J mice; conditions: for IL-17 concentration in plasma, % of control, 0.3 mg/kg: 0.3 mg/kg orally once daily for 7 days; for IL-17 concentration in plasma, % of control, 0.3 mg/kg / IL-17 concentration in plasma, % of control, 1 mg/kg: MOG/CFA/PTX-sensitized mice, blood at day 8, Normal 0%, Vehicle 100%; for IL-17 concentration in plasma, % of control, 1 mg/kg: 1 mg/kg orally once daily for 7 days; for ED50: Mus musculus, 168 h, oral once daily for 7 days, antigen-sensitized mice, calculated from the 0.3 and 1 mg/kg groups, read-out: ED50 (dose where the IL-17 concentration was decreased by 50%)
Protocol: Effects of test substances on IL-17 production in plasmas were assessed in antigen-sensitized mice. Antigen sensitization was performed according to Non Patent Literature 31. Nine-week old female C57BL/6J mice (Japan Charles River K. K.) were used as a test animal.
An emulsion prepared by mixing 3 mg/mL of myelin oligodendrocyte glycoprotein (MOG; ANASPEC) and 4 mg/mL of complete Freund's adjuvant (CFA; Chondrex) in an equal ratio was administered subcutaneously to a mouse at the bilateral abdomens at a volume of 50 μL/site (day 1). 1 μg/mL of pertussis toxin (PTX; List Biological Laboratories) was administered intraperitoneally at a volume of 200 μL/head (day 1 and 3). Blood was collected at day 8.
Administration was performed once daily for 7 days after the administration of emulsion (day 1 to 7). 0.5% (w/v) methyl cellulose (MC) was administered orally at a volume of 10 mL/kg to Normal group (normal mice) and Vehicle group (antigen-sensitized mice), and 0.03 mg/mL or 0.1 mg/mL of a test substance suspended in 0.5% (w/v) MC was administered orally at a volume of 10 mL/kg to a compound-administered group.
Blood was separated by centrifugation, and then the IL-17 concentration in plasma was measured with Quantikine (Registered trade mark) Mouse IL-17 ELISA Kit (R&D systems, Inc.).
The IL-17 concentration of Normal group was deemed to be 0% and that of Vehicle group was deemed to be 100%. The IL-17 concentration percentage (% of control) of the compound-administered group was calculated from the following equation.
% of control=(a−b)/(c−b)×100
a: IL-17 concentration of the compound-administered group b: IL-17 concentration of the Normal group c: IL-17 concentration of the Vehicle group
Then, a dose of compound where the IL-17 concentration was decreased by 50% (ED50) was calculated from the following equation.
ED50=10^(log(A/B)×(50−D)/(C−D)+log(B); provided that ED50=B in the case D=50, and ED50>B in the case D>50 A: dosed amount of the lower dose group (i.e. 0.3 mg/kg) B: dosed amount of the higher dose group (i.e. 1 mg/kg) C: % of control at the lower dose group D: % of control at the higher dose group

SMILES	Metabolic stability in hepatocytes at 240 min., Rat [1]	Metabolic stability in liver microsomes at 60 min., Mouse [2]	half-life [3]	Metabolic stability in hepatocytes at 240 min., Dog [4]	IL-17 concentration in plasma, % of control, 0.3 mg/kg [5]	IL-17 concentration in plasma, % of control, 1 mg/kg [5]	ED50 [5]
CC[C@H](C)C1=CN(C23CC(C(=O)O)(C2)C3)C(=O)N[C@@]1(C)c1ccc([C@@H]2C[C@H]2C(C)(C)C)c(Cl)c1 [Compound (2), 3-{(S)-5-((S)-sec-Butyl)-4-[4-((1R,2R)-2-tert-butyl-cyclopropyl)-3-chloro-phenyl]-4-methyl-2-oxo-3,4-dihydro-2H-pyrimidin-1-yl}bicyclo[1.1.1]pentane-1-carboxylic acid]	94%	98%	13.2 h	78%	85 (=C) %	54 (=D) %	> 1 mg/kg
CC(C)C1=CN(C23CC(C(=O)O)(C2)C3)C(=O)N[C@@]1(C)c1ccc([C@@H]2C[C@H]2C(C)(C)C)c(Cl)c1 [Compound (1), 3-{(S)-4-[4-((1R,2R)-2-tert-Butyl-cyclopropyl)-3-chloro-phenyl]-5-isopropyl-4-methyl-2-oxo-3,4-dihydro-2H-pyrimidin-1-yl}bicyclo[1.1.1]pentane-1-carboxylic acid]	90%	95%	10.5 h	88%	66 (=C) %	24 (=D) %	0.5 mg/kg
